The target in test [1] is T1, Cannabinoid receptor 1 (Homo sapiens, UniProt P21554). The test is described as follows: Displacement of [3H]CP55940 from beta-galactosidase reporter fused human CB1 receptor expressed in CHOK1 cell membranes at 1 uM after 1 hr by scintillation spectrometric analysis relative to control.
For test [2], the target named is T1, Cannabinoid receptor 1. The test can be described thus: biochemical.
The target in test [3] is T2, Cannabinoid receptor 2 (Homo sapiens, UniProt P34972). The test can be described thus: Displacement of [3H]CP55940 from beta-galactosidase reporter fused human CB2 receptor expressed in CHOK1 cell membranes after 1 hr by scintillation spectrometric analysis.
T2 sequence (P34972 whole entry, the tested form may be a part): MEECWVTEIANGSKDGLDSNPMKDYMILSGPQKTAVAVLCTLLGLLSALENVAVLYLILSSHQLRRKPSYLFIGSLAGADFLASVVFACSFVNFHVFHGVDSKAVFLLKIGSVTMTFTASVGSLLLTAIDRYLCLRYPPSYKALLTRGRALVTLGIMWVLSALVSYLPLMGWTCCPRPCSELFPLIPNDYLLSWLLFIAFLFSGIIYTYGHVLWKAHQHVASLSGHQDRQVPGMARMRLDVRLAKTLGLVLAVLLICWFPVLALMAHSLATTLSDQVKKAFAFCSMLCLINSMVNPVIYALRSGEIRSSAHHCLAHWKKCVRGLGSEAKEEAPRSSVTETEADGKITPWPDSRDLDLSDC
The target in test [4] is T2, Cannabinoid receptor 2. The test is described as follows: Displacement of [3H]CP55940 from beta-galactosidase reporter fused human CB2 receptor expressed in CHOK1 cell membranes at 1 uM after 1 hr by scintillation spectrometric analysis.

pKi: −log10 of the molar value. Where only a bound is given, the exact number is not on record here.

T1 sequence (P21554 whole entry, the tested form may be a part): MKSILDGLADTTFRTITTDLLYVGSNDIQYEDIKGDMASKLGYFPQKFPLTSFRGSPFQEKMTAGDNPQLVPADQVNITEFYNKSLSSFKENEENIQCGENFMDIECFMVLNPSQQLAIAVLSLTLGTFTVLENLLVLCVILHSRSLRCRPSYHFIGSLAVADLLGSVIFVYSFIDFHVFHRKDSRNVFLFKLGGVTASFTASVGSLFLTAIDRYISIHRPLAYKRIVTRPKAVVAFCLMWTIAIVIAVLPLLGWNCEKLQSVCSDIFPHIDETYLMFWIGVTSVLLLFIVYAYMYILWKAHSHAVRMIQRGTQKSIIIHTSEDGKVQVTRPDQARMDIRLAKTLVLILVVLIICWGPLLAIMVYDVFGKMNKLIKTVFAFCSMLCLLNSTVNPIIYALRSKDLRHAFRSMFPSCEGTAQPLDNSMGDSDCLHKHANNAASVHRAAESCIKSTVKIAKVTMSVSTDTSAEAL

Turning to `N#Cc1cc(F)ccc1-c1noc(CCC(=O)Nc2ccc3c(c2)c2ccccc2n3CCF)n1`, the inhibition in test [1] was -8%.
In test [2], `CCCCCCC(C)(C)c1cc(O)c2c(c1)OC(C)(C)[C@@H]1CC=C(CO)C[C@@H]21` showed a pKi of 8.02.
For the compound `O=C(CCc1nnc(-c2ccc(F)cc2Br)o1)Nc1ccc2c(c1)c1ccccc1n2CCF`, the pKi in test [3] was 7.60. In addition, the inhibition is > 50% in test [4] and 22% in test [1].
For `O=C(CCc1nnc(-c2ccc(Br)cc2F)o1)Nc1ccc2c(c1)c1ccccc1n2CCF` the same measures were 6.50, > 50% and -8%.
As for `O=C(CCc1nnc(-c2ccc(F)cc2Br)o1)Nc1ccc2c(c1)c1ccccc1n2CCO`, the inhibition in test [4] is < 50%.
On the same count and under the same terms, next, `N#Cc1cc(F)ccc1-c1nnc(CCC(=O)Nc2ccc3c(c2)c2ccccc2n3CCO)o1`: < 50%.
Same read-out and setting: next, `O=C(CCc1nnc(-c2ccc(Br)cc2F)o1)Nc1ccc2c(c1)c1ccccc1n2CCO`: < 50%.
For the compound `N#Cc1cc(F)ccc1-c1nnc(CCC(=O)Nc2ccc3c(c2)c2ccccc2n3CCF)o1`, the pKi in test [3] is 6.66. For the same compound, the inhibition in test [4] was > 50%; in test [1], -1%.
On to `O=C(CCc1nc(-c2ccc(Br)cc2F)no1)Nc1ccc2c(c1)c1ccccc1n2CCF`, for which the inhibition in test [1] is -5%.

The values are drawn from ChEMBL document CHEMBL4261554, “Bioisosteric replacement of central 1,2,4-oxadiazole ring of high affinity CB2 ligands by regioisomeric 1,3,4-oxadiazole ring” (Medchemcomm, 2017).
